Where two headings read alike, the source gives them in different places. Bounds are passed on as bounds.

A word on the Ki: it is a dissociation constant, usually derived from enzyme kinetics or from competition with a known ligand.

This assay addresses ENPP-1 ECD (Homo sapiens (Human), UniProt P22413). As to the kind of experiment: Assay 2: inhibition of ENPP1 hydrolysis of 2′,3′-cGAMP (AMP-Glo, […] enzyme).
Where [1] appears, read: Assay 2 (KI), inhibition of ENPP1 hydrolysis of 2′,3′-cGAMP, no unit in Table 18 (Table 17 legend for this assay uses nM).
The mark [2] stands for this setting: read-out: Assay 2 (KI), ENPP1 hydrolysis of 2′,3′-cGAMP, AMP-Glo, […] ENPP-1, 24 μM cGAMP.
Where [3] appears, read: read-out: Assay 2 (KI), inhibition of ENPP1 hydrolysis of 2′,3′-cGAMP, no unit in Table 18 (Table 17 legend for this assay uses nM).
The mark [4] stands for this setting: Assay 2 (KI), ENPP1 hydrolysis of 2′,3′-cGAMP, AMP-Glo, […] ENPP-1, 24 μM cGAMP.

Sequence of ENPP-1 ECD (P22413 98-925): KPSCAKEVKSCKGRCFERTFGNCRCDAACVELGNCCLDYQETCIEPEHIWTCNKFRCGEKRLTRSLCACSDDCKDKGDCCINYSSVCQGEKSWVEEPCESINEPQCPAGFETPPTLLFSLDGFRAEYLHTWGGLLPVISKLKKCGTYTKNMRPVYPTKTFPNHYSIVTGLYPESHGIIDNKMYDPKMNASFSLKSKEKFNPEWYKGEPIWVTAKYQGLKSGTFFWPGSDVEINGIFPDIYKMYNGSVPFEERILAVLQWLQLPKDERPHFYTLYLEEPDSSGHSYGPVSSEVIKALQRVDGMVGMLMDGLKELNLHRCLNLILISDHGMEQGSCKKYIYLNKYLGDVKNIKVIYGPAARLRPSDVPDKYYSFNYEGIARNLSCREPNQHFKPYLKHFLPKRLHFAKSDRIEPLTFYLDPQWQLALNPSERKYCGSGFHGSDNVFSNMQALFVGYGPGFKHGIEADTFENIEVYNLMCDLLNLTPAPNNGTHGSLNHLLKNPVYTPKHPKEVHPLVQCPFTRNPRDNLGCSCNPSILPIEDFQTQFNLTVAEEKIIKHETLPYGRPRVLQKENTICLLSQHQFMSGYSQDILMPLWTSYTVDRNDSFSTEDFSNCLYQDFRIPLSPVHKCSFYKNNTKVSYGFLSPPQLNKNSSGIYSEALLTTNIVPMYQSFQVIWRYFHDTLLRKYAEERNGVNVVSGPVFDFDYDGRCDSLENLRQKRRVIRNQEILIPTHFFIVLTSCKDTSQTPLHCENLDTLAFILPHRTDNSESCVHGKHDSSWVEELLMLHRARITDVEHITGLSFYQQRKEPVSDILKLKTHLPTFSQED
Method: Assay 2: Compared to the conditions in Assay 1, this assay has a larger dynamic range and ensures the system is under steady-state conditions by reducing the enzyme concentration in the assay.
Test compounds were plated in a 3× dilution scheme in a 384 well plate. […] AMP Detection solution (10 μL) was added to each well, the plate centrifuged and incubated for 60 min.

As for `COc1ccc2c(OCC3CCS(=N)(=O)CC3)ccnc2c1` (single isomer, unassigned) [Compound 107a, 4-[(1-imino-1-oxido-3,4,5,6-tetrahydro-2H-thiopyran-4-yl)methoxy]-7-methoxy-quinoline], under setting [1], the affinity, expressed as Ki, was 27 nM.

`COc1ccc2c(OCC3CCS(=N)(=O)CC3)ccnc2c1` (single isomer, unassigned) [Compound 107b, 4-[(1-imino-1-oxido-3,4,5,6-tetrahydro-2H-thiopyran-4-yl)methoxy]-7-methoxy-quinoline] registered a Ki under setting [1] of 74 nM. With `COc1cc2ncnc(-c3ccc4c(c3)CN([S@@](C)(=N)=O)CC4)c2cc1OC` [Compound 37a], the Ki by setting is: under setting [2], 3 to 300 nM; under setting [3], 21 nM. For the compound `COc1ccc2c(-c3ccc4c(c3)CN([S@](C)(=N)=O)CC4)ccnc2c1` [Compound 52a], the Ki under setting [2] fell in the range of 3 to 300 nM and the Ki under setting [3] was 110 nM. On the same counts, the results for `COc1ccc2c(-c3ccc4c(c3)CN([S@@](C)(=N)=O)CC4)ccnc2c1` [Compound 52b] are 3 to 300 nM and 3.5 nM. In the case of `COc1ccc2c(Oc3ccc(S(C)(=N)=O)cc3)ccnc2n1` (centres unmarked) [Compound 78, imino(4-((7-methoxy-1,8-naphthyridin-4-yl)oxy)phenyl)(methyl)-λ^6-sulfanone], the Ki is, setting by setting: under setting [4], 3 to 300 nM; under setting [1], 150 nM. In the case of `COc1cc2ncnc(N3CCC(CN[S@](C)(=N)=O)CC3)c2cc1OC` [Compound 94b], the Ki under setting [2] lay in the range of 3 to 300 nM and the Ki under setting [3] worked out at 9 nM.

In the case of `COc1ccc2c(OCC3CCS(=N)(=O)CC3)ccnc2c1` (centres unmarked) [Compound 107, 4-[(1-imino-1-oxido-3,4,5,6-tetrahydro-2H-thiopyran-4-yl)methoxy]-7-methoxy-quinoline], the Ki under setting [1] is 80 nM.

In the case of `COCCS(=N)(=O)c1ccc(Oc2ccnc3cc(OC)ccc23)cc1` (centres unmarked) [Compound 122, imino(2-methoxyethyl){4-[(7-methoxyquinolin-4-yl)oxy]phenyl}-λ^6-sulfanone], the Ki by setting is: under setting [4], < 3 nM; under setting [1], 1.6 nM. As for `COc1cc2nccc(N3CCC(CC[S@](C)(=N)=O)CC3)c2cc1Cl` [Compound 141b], the inhibition constant Ki runs as follows: under setting [2], 3 to 300 nM; under setting [3], 31 nM. Turning to `COc1cc2ncnc(N3CCC(CCCS(C)(=N)=O)CC3)c2cc1OC` (centres unmarked) [Compound 145, {3-[1-(6,7-dimethoxyquinazolin-4-yl)piperidin-4-yl]propyl}(imino)methyl-λ^6-sulfanone], the Ki runs as follows: under setting [4], 3 to 300 nM; under setting [1], 8.7 nM. For `COc1cccc2c(N3CCC(C[S@](C)(=N)=O)CC3)ncnc12` [Compound 146b], the Ki under setting [3] came out at 66 nM. The compound `COc1cc2ncnc(N3CCC(CS(C)(=N)=O)CC3)c2cc1OC` (centres unmarked) [Compound 147, {[1-(6,7-dimethoxyquinazolin-4-yl)piperidin-4-yl]methyl}(imino)methyl-λ^6-sulfanone] returned a Ki under setting [4] of 3 to 300 nM and a Ki under setting [1] of 9.9 nM. In the case of `COc1ccc2c(N3CCC(CS(C)(=N)=O)CC3)ccnc2c1` (centres unmarked) [Compound 148, imino({[1-(7-methoxyquinolin-4-yl)piperidin-4-yl]methyl})methyl-λ^6-sulfanone], the Ki by setting is: under setting [4], 3 to 300 nM; under setting [1], 56 nM. Consider `COc1cc2nccc(N3CCC4(CC3)CCN([S@](C)(=N)=O)C4)c2cc1Cl` [Compound 156b], for which the Ki is, setting by setting: under setting [2], < 3 nM; under setting [3], 2.9 nM.

In the case of `COc1cc2nccc(N3CCC(CNS(C)(=N)=O)CC3)c2cc1Cl` (centres unmarked) [Compound 157, N-{[1-(6-chloro-7-methoxyquinolin-4-yl)piperidin-4-yl]methyl}methanesulfonoimidamide], the Ki under setting [4] is < 3 nM and the Ki under setting [1] was 2.7 nM. On the same counts, the results for `COc1ccc2c(N3CCC4(CC3)CCN(S(C)(=N)=O)C4)ccnc2n1` (centres unmarked) [Compound 158, imino[8-(7-methoxy-1,8-naphthyridin-4-yl)-2,8-diazaspiro[4.5]decan-2-yl]methyl-λ^6-sulfanone] are < 3 nM and 0.44 nM.

For the compound `COc1cc2ncnc(N3CCC4(CC3)CCN([S@@](=N)(=O)C3CC3)C4)c2cc1OC` [Compound 160b], the Ki under setting [3] was 1.7 nM.

On to `COc1cc2nccc(-c3ccc4c(c3)CN([S@](C)(=N)=O)CC4)c2cc1OC` [Compound 161b], for which the Ki was < 3 nM under setting [2] and 0.64 nM under setting [3].

`COc1ccc2c(-c3ccc4c(c3)CN(S(C)(=N)=O)CC4)ccnc2n1` (centres unmarked) [Compound 163, imino[7-(7-methoxy-1,8-naphthyridin-4-yl)-1,2,3,4-tetrahydroisoquinolin-2-yl]methyl-λ^6-sulfanone]: the Ki under setting [4] lay within 3 to 300 nM and the affinity under setting [1] corresponds to a Ki of 21 nM.

`COc1cc2ncnc(OCC3CCN(S(C)(=N)=O)CC3)c2cc1OC` (centres unmarked) [Compound 164, (4-{[(6,7-dimethoxyquinazolin-4-yl)oxy]methyl}piperidin-1-yl)(imino)methyl-λ^6-sulfanone]: the Ki runs as follows: under setting [4], 3 to 300 nM; under setting [1], 97 nM. Take `COc1ccc2c(Oc3ccc(S(C)(=N)=O)cc3)ncnc2c1` (centres unmarked) [Compound 167, imino({4-[(7-methoxyquinazolin-4-yl)oxy]phenyl})methyl-λ^6-sulfanone]: the Ki under setting [1] worked out at 7.9 nM.

The compound `COc1cc2ncnc(OCC3CCS(=N)(=O)CC3)c2cc1OC` (centres unmarked) [Compound 171, 4-{[(6,7-dimethoxyquinazolin-4-yl)oxy]methyl}-1-imino-1λ^6-thian-1-one] registered a Ki under setting [1] of 49 nM. On to `COc1ccc2c(OCc3cncc(S(C)(=N)=O)c3)ccnc2c1` (centres unmarked) [Compound 172, imino(5-{[(7-methoxyquinolin-4-yl)oxy]methyl}pyridin-3-yl)methyl-λ^6-sulfanone], for which the Ki under setting [1] was found to be 11 nM. With `COc1cc2nccc(OCc3cccc([S@@](C)(=N)=O)c3)c2cc1OC` [Compound 175b], the Ki under setting [3] was found to be 4.1 nM. As for `COc1ccc2c(OCc3cc(F)cc([S@@](C)(=N)=O)c3)ccnc2c1` [Compound 177a], the Ki under setting [3] was 20 nM. Regarding `COc1ccc2c(O[C@H](C)c3cccc(S(C)(=N)=O)c3)ccnc2c1` (stereo partly drawn) [Compound 178, imino({3-[(1R)-1-[(7-methoxyquinolin-4-yl)oxy]ethyl]phenyl})methyl-λ^6-sulfanone], the affinity under setting [1] corresponds to a Ki of 2.6 nM. With `COc1ccc2c(O[C@H](C)c3cccc([S@](C)(=N)=O)c3)ccnc2c1` [Compound 178b], the Ki under setting [3] was 34 nM. Same read-out and setting: the value for `COc1cccc2c(N3CCC(C[S@@](C)(=N)=O)CC3)c(C#N)cnc12` [Compound 179a] was 9.1 nM. Under setting [1], `COc1cccc2c(N3CCC(CS(C)(=N)=O)CC3)ccnc12` (centres unmarked) [Compound 180, imino({[1-(8-methoxyquinolin-4-yl)piperidin-4-yl]methyl})methyl-λ^6-sulfanone] yielded a Ki of 16 nM. For `COc1cccc2c(N3CCC(CS(C)(=N)=O)CC3)cnnc12` (centres unmarked) [Compound 182, imino({[1-(8-methoxycinnolin-4-yl)piperidin-4-yl]methyl})methyl-λ^6-sulfanone], under setting [1], affinity was put at a Ki of 3.1 nM.

Under setting [1], `COc1cc(F)cc2c(N3CCC(CS(C)(=N)=O)CC3)ncnc12` (centres unmarked) [Compound 183, {[1-(6-fluoro-8-methoxyquinazolin-4-yl)piperidin-4-yl]methyl}(imino)methyl-λ^6-sulfanone] showed a Ki of 5.2 nM.

On to `COc1cc(F)cc2c(N3CCC(C[S@@](C)(=N)=O)CC3)ncnc12` [Compound 183a], for which the Ki under setting [3] was 2.9 nM. On to `COc1cc(F)cc2c(N3CCC(CS(C)(=N)=O)CC3)ncnc12` (centres unmarked) [Compound 183b], for which the Ki under setting [3] is > 150 nM. Take `COc1cccc2c(N3CCC(O)(C[S@](C)(=N)=O)CC3)ncnc12` [Compound 185b]: under setting [3], the Ki was found to be 2.8 nM. As for `COc1cccc2c(N3CCC(C[S@@](=N)(=O)C4CC4)CC3)c(C#N)cnc12` [Compound 189a], the Ki under setting [3] was 8.8 nM. Still for that read-out and setting: next, `COc1cc2nccc(NCc3cccc(S(C)(=N)=O)c3)c2cc1F` (centres unmarked) [Compound 192, (3-{[(6-fluoro-7-methoxyquinolin-4-yl)amino]methyl}phenyl)(imino)methyl-λ^6-sulfanone]: 0.58 nM. Same read-out and setting: next, `COc1cccc2c(N3CCC(O)(C[S@@](=N)(=O)C4CC4)CC3)ncnc12` [Compound 193a]: 54 nM. Under setting [1], `COc1cccc2c(N3CCC(O)(CS(C)(=N)=O)C4(CC4)C3)ncnc12` (centres unmarked) [Compound 194, {[8-hydroxy-5-(8-methoxyquinazolin-4-yl)-5-azaspiro[2.5]octan-8-yl]methyl}(imino)methyl-λ^6-sulfanone] registered a Ki of 40 nM.

`CCS(=N)(=O)CC1(O)CCN(c2ncnc3c(OC)cccc23)CC1` (centres unmarked) [Compound 195, ethyl({[4-hydroxy-1-(8-methoxyquinazolin-4-yl)piperidin-4-yl]methyl})imino-λ^6-sulfanone]: the Ki under setting [1] came to 0.2 nM. As for `CC[S@@](=N)(=O)CC1(O)CCN(c2ncnc3c(OC)cccc23)CC1` [Compound 195a], under setting [3], the Ki amounted to 0.052 nM. Still for that read-out and setting: the value for `CC[S@](=N)(=O)CC1(O)CCN(c2ncnc3c(OC)cccc23)CC1` [Compound 195b] was 7.7 nM; that for `COc1cccc2c(N3CCC(O)(C[S@](C)(=N)=O)CC3)c(C#N)cnc12` [Compound 198b] was 1.2 nM.

In turn, `COc1cccc2c(N3CCC(CS(C)(=N)=O)CC3)c(F)cnc12` (centres unmarked) [Compound 202, {[1-(3-fluoro-8-methoxyquinolin-4-yl)piperidin-4-yl]methyl}(imino)methyl-λ^6-sulfanone] had an inhibitory constant (Ki) under setting [1] of 370 nM. `COc1ccc(F)c2c(N3CCC(CS(C)(=N)=O)CC3)c(C#N)cnc12` (centres unmarked) [Compound 203, 5-fluoro-4-(4-{[imino(methyl)oxo-λ^6-sulfanyl]methyl}piperidin-1-yl)-8-methoxyquinoline-3-carbonitrile]: the Ki under setting [1] came to 1.7 nM. The same measure, in the same setting: next, `COc1cc2nccc(-c3cccc(CCS(C)(=N)=O)c3)c2cc1OC` (centres unmarked) [Compound 204, {2-[3-(6,7-dimethoxyquinolin-4-yl)phenyl]ethyl}(imino)methyl-λ^6-sulfanone]: 28 nM.
